Reference: paper PMC10265003 (Royal Society Open Science, 2023)
Where two headings read alike, the source gives them in different places. Positions of bridges follow the written chain, without caps; N, C: chain ends. Non-standard residues stand in square brackets, D forms with d. Residues, ends and D or L forms follow the SMILES beside them. Chains are numbered I, II in the order given. Bpa = N[C@@H](Cc1ccc(C(=O)c2ccccc2)cc1)C(=O)O; Dip = N[C@H](C(=O)O)C(c1ccccc1)c1ccccc1; hPhe = N[C@@H](CCc1ccccc1)C(=O)O; Ahx = NCCCCCC(=O)O

Experiments:
MCF-7 breast cancer line = assay type: cell-based, human
Experimental: (§1) The MTT assay was performed in accordance with previous reports. Briefly, the cells were seeded with a complete medium in 96-well plates at a rate of 10 000 cells and 100 µl per well, and adhesion to the plates was allowed for 24 h. Later, the complete medium was removed, and an incomplete medium was added for synchronization for another 24 h. The cells were then incubated at 37°C for 2 h with 100 µl of peptide at the evaluated concentrations (200, 100, 50, 25, 12.5 and 6.25 µg ml^−1). Next, the peptide was removed from the well and 100 µl of incomplete medium with 10% MTT was added and incubated for 4 h. The medium was replaced with 100 µl of isopropanol, and after 30 min of incubation at 37°C, the absorbance was measured at 575 nm. As a negative control, an incomplete culture medium with 10% MTT was used, and as a positive control, cells without MTT treatment were used. The IC50 value was determined from figure 1 (peptide concentration versus per cent cell viability) using a nonlinear regression model with variable slope and GraphPad Prism 9 statistical analysis software.

pepsin = pepsin (Sus scrofa, UniProt P00791); details: pH 2
Sequence of pepsin (P00791 60-385): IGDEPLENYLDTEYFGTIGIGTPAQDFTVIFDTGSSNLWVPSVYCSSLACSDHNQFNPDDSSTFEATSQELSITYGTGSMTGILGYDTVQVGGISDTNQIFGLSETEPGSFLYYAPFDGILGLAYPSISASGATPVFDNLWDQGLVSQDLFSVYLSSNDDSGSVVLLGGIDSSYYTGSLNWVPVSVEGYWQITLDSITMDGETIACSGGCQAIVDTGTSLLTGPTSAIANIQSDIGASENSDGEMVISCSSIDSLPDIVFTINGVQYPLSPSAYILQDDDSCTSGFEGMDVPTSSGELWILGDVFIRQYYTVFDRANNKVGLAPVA
Experimental: Pepsin was dissolved in 0.010 M HCl (pH 2.0). An aliquot of 50 µl was added to each peptide solution in a 1 : 100 (w/w) ratio. The peptides were dissolved in H2O-TFA 0.05% (v/v). This was incubated at 37°C for 3 h, aliquots were taken at 0 and 3 h, and the samples were heated for 5 min and then cooled at 4°C for the thermal inactivation of pepsin and characterized via HPLC and LC-MS.

trypsin = trypsin (Sus scrofa, UniProt P00761)
Sequence of trypsin (P00761 9-231): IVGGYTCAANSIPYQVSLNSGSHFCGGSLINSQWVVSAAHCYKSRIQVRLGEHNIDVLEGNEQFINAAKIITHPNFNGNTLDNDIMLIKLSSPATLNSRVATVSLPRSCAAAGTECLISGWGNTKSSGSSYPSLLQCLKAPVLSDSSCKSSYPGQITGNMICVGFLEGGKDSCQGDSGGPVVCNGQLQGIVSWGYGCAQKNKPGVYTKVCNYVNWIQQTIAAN
Experimental: Trypsin (20 μg) was dissolved in 450 µl of the buffer supplied by the manufacturer, and 50 µl was added to each peptide solution, maintaining a protease : peptide ratio of 1 : 100 (w/w). The samples were incubated at 37°C for 24 h. Aliquots were taken at 0, 5, 10, 15 and 20 min, the enzymatic reaction was stopped by adding 1 M HCl, and the mixture was analysed via RP-HPLC and LC-MS. Bovine serum albumin (BSA) and bovine lactoferrin (bLF) were used as the positive control, and the negative control was the peptide in buffer solution without trypsin.

[1] = system: human primary fibroblasts; assay type: cell-based
Text: Rink amide resin, Fmoc-Arg(Pbf)-OH, Fmoc-Trp(Boc)-OH, Fmoc-Gln(Trt)-OH, Fmoc-Phe-OH, Fmoc-Lys(Boc)-OH, Fmoc-Leu-OH, Fmoc-Gly-OH, Fmoc-6-Ahx-OH, Fmoc-Lys(Fmoc)-OH, Triton-X, piperidine, N,N-dimethylformamide (DMF), dichloromethane (DCM), dicyclohexylcarbodiimide (DCC), 1-hydroxy-6-chloro-benzotriazole (6-Cl-HOBt), ninhydrin, potassium cyanide (KCN), ethanol, pyridine, phenol, trifluoroacetic acid (TFA), ethyl ether, triisopropylsilane (TIS), ethanedithiol (EDT), acetonitrile (ACN), methanol (MeOH) and solid phase extraction columns Supelco, Trypsin-EDTA solution and pepsin 2500 units mg^−1 were purchased from Sigma-Aldrich (St Louis, MO, USA). The non-natural amino acids diphenylalanine, 1-naphthyl-phenylalanine, 4-benzoyl-phenylalanine, homophenylalanine (hF), 4-(Fmoc-amino) benzoic acid (4-Abz) and 2-(Fmoc-amino) benzoic acid (2-Abz) were obtained from AAPPTec (Louisville, KY, USA). The cell lines MCF-7, HeLa, HEK-293 were purchased from ATCC (Manassas, VA). The primary cell culture of fibroblasts was obtained from the foreskin by the Laboratory of Cellular Physiology of the National University of Colombia, and the fibroblasts were cultured and frozen. Some vials were thawed and cultured for up to seven passes, since no transformation/immortalization was done. Annexin V and Alexa Fluor 488 conjugate was purchased from Invitrogen (Eugene, Oregon). The DMEM culture medium and trypsin were obtained from Sigma-Aldrich (St Louis, MO, USA). Bovine fetal serum was purchased from Gibco (Waltham, MA, USA). Calcium assay kit and Fluorescein CaspGLOW Active Caspase-8 or Caspase-9 Staining Kit were obtained for BD Biosciences (San Diego, CA, USA) and Invitrogen Thermo Fisher Scientific (Waltham, MA, USA), respectively.
as §1, with “The cells were then incubated at 37°C for 2 h with 100 µl of peptide at the evaluated concentrations (200, 100, 50, 25, 12.5 and 6.25 µg ml^−1).” left out

[2] = system: HeLa human cervical cancer cell line; assay type: cell-based; details: 2 h
Experimental: as §1

[3] = system: HEK-293 human kidney cell line; assay type: cell-based; details: 2 h
Experimental: as §1, with “The cells were then incubated at 37°C for 2 h with 100 µl of peptide at the evaluated concentrations (200, 100, 50, 25, 12.5 and 6.25 µg ml^−1).” left out

human erythrocytes = assay type: cell-based; details: 2 h
Experimental: Haemolysis assays were performed in accordance with Cárdenas et al.. The blood was donated by healthy volunteers with blood type O^+. First, 5 ml of peripheral blood in EDTA was centrifuged at 500 r.p.m. for 15 min, and the erythrocytes were separated and washed three times with 0.9% saline solution. Then 100 µl of peptide solution (final concentrations of 200 at 6.2 µg ml^−1) was mixed with 100 µl of erythrocytes (2% haematocrit) and incubated at 37°C for 2 h. It was then centrifuged at 2500 r.p.m. for 5 min and the absorbance of the supernatant was measured at 450 nm. Two controls were used; positive control: distilled water, and negative control: saline solution 0.9%.

Row | Compound | IC50 (MCF-7 breast cancer line; MTT, MCF-7, peptide treatment for 2 hours at 37°C, three independent experiments with n = 4, nonlinear regression, read-out: IC50) [µM] | IC50 (MCF-7 breast cancer line; 2 h) [µM] | proteolytic degradation by pepsin (pepsin) | proteolytic degradation by trypsin, 10 min (trypsin) | IC50 MCF-7 (MCF-7 breast cancer line; 2 h) | selectivity index IC50 fibroblasts/IC50 HeLa [1] | selectivity index IC50 fibroblasts/IC50 MCF-7 [1] | IC50 fibroblasts ([1]; 2 h) | IC50 HeLa [2] | IC50 HEK-293 [3] | IC50 erythrocytes (human erythrocytes) | selectivity index IC50 erythrocytes/IC50 HeLa (human erythrocytes) | selectivity index IC50 erythrocytes/IC50 MCF-7 (human erythrocytes)
1 | CC(C)C[C@H](NC(=O)[C@H](CCCCN)NC(=O)[C@H](CCCCN)NC(=O)[C@H](Cc1ccc(C(=O)c2ccccc2)cc1)NC(=O)[C@H](CCCNC(=N)N)NC(=O)[C@H](Cc1c[nH]c2ccccc12)NC(=O)[C@H](CCC(N)=O)NC(=O)[C@H](Cc1c[nH]c2ccccc12)NC(=O)[C@H](CCCNC(=N)N)NC(=O)[C@@H](N)CCCNC(=N)N)C(=O)NCC(=O)NCCCC[C@H](NC(=O)CNC(=O)[C@H](CC(C)C)NC(=O)[C@H](CCCCN)NC(=O)[C@H](CCCCN)NC(=O)[C@H](Cc1ccc(C(=O)c2ccccc2)cc1)NC(=O)[C@H](CCCNC(=N)N)NC(=O)[C@H](Cc1c[nH]c2ccccc12)NC(=O)[C@H](CCC(N)=O)NC(=O)[C@H](Cc1c[nH]c2ccccc12)NC(=O)[C@H](CCCNC(=N)N)NC(=O)[C@@H](N)CCCNC(=N)N)C(=O)NCCCCCC(N)=O [^26[Bpa], (RRWQWR-Bpa-KKLG)2-K-Ahx] (I: H-RRWQWR[Bpa]KKLGK[Ahx]-NH2 / II: H-RRWQWR[Bpa]KKLG; amide I:12-II:C) | 17 |  |  |  |  |  |  |  |  |  |  |  | 
2 | CC(C)C[C@H](NC(=O)[C@H](CCCCN)NC(=O)[C@H](CCCCN)NC(=O)[C@@H](NC(=O)[C@H](CCCNC(=N)N)NC(=O)[C@H](Cc1c[nH]c2ccccc12)NC(=O)[C@H](CCC(N)=O)NC(=O)[C@H](Cc1c[nH]c2ccccc12)NC(=O)[C@H](CCCNC(=N)N)NC(=O)[C@@H](N)CCCNC(=N)N)C(c1ccccc1)c1ccccc1)C(=O)NCC(=O)NCCCC[C@H](NC(=O)CNC(=O)[C@H](CC(C)C)NC(=O)[C@H](CCCCN)NC(=O)[C@H](CCCCN)NC(=O)[C@@H](NC(=O)[C@H](CCCNC(=N)N)NC(=O)[C@H](Cc1c[nH]c2ccccc12)NC(=O)[C@H](CCC(N)=O)NC(=O)[C@H](Cc1c[nH]c2ccccc12)NC(=O)[C@H](CCCNC(=N)N)NC(=O)[C@@H](N)CCCNC(=N)N)C(c1ccccc1)c1ccccc1)C(=O)NCCCCCC(N)=O [^26[Dip], (RRWQWR-Dip-KKLG)2-K-Ahx] (I: H-RRWQWR[Dip]KKLGK[Ahx]-NH2 / II: H-RRWQWR[Dip]KKLG; amide I:12-II:C) |  | 34 |  |  |  |  |  |  |  |  |  |  | 
3 | CC(C)C[C@H](NC(=O)[C@H](CCCCN)NC(=O)[C@H](CCCCN)NC(=O)[C@H](CCc1ccccc1)NC(=O)[C@H](CCCNC(=N)N)NC(=O)[C@H](Cc1c[nH]c2ccccc12)NC(=O)[C@H](CCC(N)=O)NC(=O)[C@H](Cc1c[nH]c2ccccc12)NC(=O)[C@H](CCCNC(=N)N)NC(=O)[C@@H](N)CCCNC(=N)N)C(=O)NCC(=O)NCCCC[C@H](NC(=O)CNC(=O)[C@H](CC(C)C)NC(=O)[C@H](CCCCN)NC(=O)[C@H](CCCCN)NC(=O)[C@H](CCc1ccccc1)NC(=O)[C@H](CCCNC(=N)N)NC(=O)[C@H](Cc1c[nH]c2ccccc12)NC(=O)[C@H](CCC(N)=O)NC(=O)[C@H](Cc1c[nH]c2ccccc12)NC(=O)[C@H](CCCNC(=N)N)NC(=O)[C@@H](N)CCCNC(=N)N)C(=O)NCCCCCC(N)=O [^26[hF], (RRWQWR-hF-KKLG)2-K-Ahx] (I: H-RRWQWR[hPhe]KKLGK[Ahx]-NH2 / II: H-RRWQWR[hPhe]KKLG; amide I:12-II:C) |  | 18 | unaffected | two fragments were also generated | 60(18) µg mL^−1 | 1.2 | 1.0 | 63(19) µg mL^−1 | 53(16) µg mL^−1 | 134(40) µg mL^−1 | >200(>59) µg mL^−1 | > 3.7 | > 3.3
